Reference: US6855730B2, “3-methylidenyl-2-indolinone modulators of protein kinase” (Sugen, Inc., priority 1998, dated 2005)
pIC50: −log10 of the molar value.

What was measured:
Format in all cases: cell-based
[1] = target: T1, 3T3 cell line genetically engineered to express human EGF-R (Homo sapiens, UniProt P00533); test: EGF-induced BrdU incorporation assay; details: read-out: BrdU EGF driven IC50
T1 construct: expressed in transfected cells; host or cells: 3T3
Method: The cellular/catalytic assays described herein are performed in an ELISA format. The general procedure is as follows: a compound is introduced to cells expressing the test kinase, either naturally or recombinantly, for a selected period of time after which, if the test kinase is a receptor, a ligand known to activate the receptor is added. The cells are lysed and the lysate is transferred to the wells of an ELISA plate previously coated with a specific antibody recognizing the substrate of the enzymatic phosphorylation reaction. Non-substrate components of the cell lysate are washed away and the amount of phosphorylation on the substrate is detected with an antibody specifically recognizing phosphotyrosine compared with control cells that were not contacted with a test compound. The cellular/biologic assays described herein measure the amount of DNA made in response to activation of a test kinase, which is a general measure of a proliferative response. The general procedure for this assay is as follows: a compound is introduced to cells expressing the test kinase, either naturally or recombinantly, for a selected period of time after which, if the test kinase is a receptor, a ligand known to activate the receptor is added. After incubation at least overnight, a DNA labeling reagent such as Bromodeoxyuridine (BrdU) or 3H-thymidine is added. The amount of labeled DNA is detected with either an anti-BrdU antibody or by measuring radioactivity and is compared to control cells not contacted with a test compound. […]
Protocol • (1) Cells are seeded at 8000 cells/well in 10% CS, 2mM Gin in DMEM, in a 96 well plate. Cells are incubated overnight at 37° C. in 5% CO2. • (2) After 24 hours, the cells are washed with PBS, and then are serum starved in serum free medium (0% CS DMEM with 0.1% BSA) for 24 hours. • (3) On day 3, ligand (EGF, 2 nM, prepared in DMEM with 0.1% BSA) and test compounds are added to the cells simultaneously. The negative control wells receive serum free DMEM with 0.1% BSA only, the positive control cells receive the ligand (EGF) but no test compound. Test compounds are prepared in serum free DMEM with ligand in a 96 well plate, and serially diluted for 7 test concentrations. • (4) After 20 hours of ligand activation, diluted BrdU labeling reagent (1:100 in DMEM, 0.1% BSA) is added and the cells are incubated with BrdU (final concentration=10 μM) for 1.5 hours. • (5) After incubation with labeling reagent, the medium is removed by decanting and tapping the inverted plate on a paper towel. FixDenat solution is added (50 μl/well) and the plates are incubated at room temperature for 45 minutes on a plate shaker. • (6) The FixDenat solution is thoroughly removed by decanting and tapping the inverted plate on a paper towel. Milk is added (5% dehydrated milk in PBS, 200 μl/well) as a blocking solution and the plate is incubated for 30 minutes at room temperature on a plate shaker. • (7) The blocking solution is removed by decanting and the wells are washed once with PBS. Anti-BrdU-POD solution (1:100 dilution in PBS, 1% BSA) is added (100 μ/well) and the plate is incubated for 90 minutes at room temperature on a plate shaker. • (8) The antibody conjugate is thoroughly removed by decanting and rinsing the wells 5 times with PBS, and the plate is dried by inverting and tapping on a paper towel. • (9) TMB substrate solution is added (100 μl/well) and incubated for 20 minutes at room temperature on a plate shaker until color development is sufficient for photometric detection. • (10) The absorbance of the samples are measured at 410 nm (in “dual wavelength” mode with a filter reading at 490 nm, as a reference wavelength) on a Dynatech ELISA plate reader.

SKOV3 cells = test: SKOV3 growth assay (2% FBS); details: Homo sapiens, SK-OV-3, read-out: SKOV3 growth (2% FBS) IC50
A431 cells = test: A431 growth assay (2% FBS); details: Homo sapiens, A-431, read-out: A431 growth (2% FBS) IC50

| pIC50 [1] | pIC50 (SKOV3 cells) | pIC50 (A431 cells) | SMILES |
| --- | --- | --- | --- |
| 4.35 | 4.76 | 5.22 | COc1ccc(/C=C2/C(=O)Nc3ccc(Cl)cc32)cc1-c1cccs1 [Example 59, 5-chloro-3-(4-Methoxy-3-thiophen-2-ylbenzylidene)-1,3-dihydroindol-2-one] |
| < 4.30 | 5.32 | 5.23 | COc1ccc(/C=C2/C(=O)Nc3ccc(Cl)cc32)cc1-c1cccnc1 [Example 60] |
| < 4.30 | < 4.60 | < 4.60 | COc1cccc(-c2cc(OC)c(OC)cc2/C=C2/C(=O)Nc3ccc(Cl)cc32)c1 [Example 61, 5-Chloro-3-(4,5-3′-Trimethoxybiphenyl-2-ylmethylene)-1,3-dihydroindol-2-one] |
| < 4.30 | 5.21 | 5.22 | COc1cc(/C=C2/C(=O)Nc3ccccc32)c(-c2ccc3ccccc3c2)cc1OC [Example 62, 3-(4,5-Dimethoxy-2-naphthalen-2-ylbenzylidene)-1,3-dihydroindol-2-one] |
